Results on three molecules are retold here after article PMC6018617, “Probing GABAA receptors with inhibitory neurosteroids” (Neuropharmacology, 2018).

Where only a bound is given, the exact number is not on record here.

Experiment [1] addresses T1, α1β2γ2L (Mus musculus, UniProt P22723+P62812+P63137).
T1 construct: gene Gabra1; full-length subunits in pRK5, co-expressed 1:1:1 in HEK cells; heteropentamer; with Gamma-aminobutyric acid receptor subunit gamma-2
Nature of the experiment: whole-cell patch clamp, HEK cells. The format is cell-based. The conditions noted are these: GABA EC100 (1 mM), PTX pre-applied then co-applied; text calls it picrotoxin, reagent list picrotoxinin.

Another experiment addresses T2, α1β2 (Mus musculus, UniProt P62812+P63137).
T2 construct: gene Gabra1; full-length subunits in pRK5, co-expressed in HEK cells; heteropentamer without gamma
As to the kind of experiment: whole-cell patch clamp, HEK cells. Type of experiment: cell-based. The following applies: read-out: PS IC50. The text has this:
whole-cell patch clamp, HEK cells on α1β2

Experiment [2] has as its target T1, α1β2γ2L. Nature of the experiment: whole-cell patch clamp, HEK cells. The following applies: read-out: PS IC50. Type of experiment: cell-based. The text has this: whole-cell patch clamp, HEK cells on α1β2γ2L
Another experiment addresses T3, α4β2δ (Mus musculus, UniProt P22933+P63137+Q9D6F4).
T3 construct: gene Gabra4; full-length subunits in pRK5, co-expressed in HEK cells; heteropentamer; with Gamma-aminobutyric acid receptor subunit delta
As to the kind of experiment: whole-cell patch clamp, HEK cells. The format is cell-based. The conditions noted are these: read-out: PS IC50. The text has this:
whole-cell patch clamp, HEK cells on α4β2δ

Experiment [3] deals with T4, α3β2γ2L (Mus musculus, UniProt P22723+P26049+P63137).
T4 construct: gene Gabra3; full-length subunits in pRK5, co-expressed in HEK cells; heteropentamer; with Gamma-aminobutyric acid receptor subunit gamma-2
As to the kind of experiment: whole-cell patch clamp, HEK cells. Type of experiment: cell-based. The following applies: read-out: PS IC50. The text has this:
whole-cell patch clamp, HEK cells on α3β2γ2L

In experiment [4] the target is T5, α6β2δ (Mus musculus, UniProt P16305+P22933+P63137).
T5 construct: gene Gabra6; full-length subunits in pRK5, co-expressed in HEK cells; heteropentamer; with Gamma-aminobutyric acid receptor subunit delta
As to the kind of experiment: whole-cell patch clamp, HEK cells. Type of experiment: cell-based. The conditions noted are these: read-out: PS IC50. The text has this: whole-cell patch clamp, HEK cells on α6β2δ

The next experiment has as its target T6, β3 homomer (Mus musculus, UniProt P63080).
T6 construct: gene Gabrb3; full-length subunit in pRK5, HEK cells; homopentamer
Nature of the experiment: whole-cell patch clamp, HEK cells. Type of experiment: cell-based. The following applies: 100 μM PS co-applied with 500 μM pentobarbitone.

The target of experiment [5] is T7, α1β2γ2L (Mus musculus, UniProt P22723+P62812+P63137, P62812:V283S).
T7 construct: gene Gabra1; full-length subunits in pRK5, co-expressed 1:1:1 in HEK cells; heteropentamer; with Gamma-aminobutyric acid receptor subunit gamma-2
As to the kind of experiment: whole-cell patch clamp, HEK cells. The format is cell-based.

The target in experiment [6] is T8, ρ1 (Homo sapiens, UniProt P24046, P315V).
T8 construct: gene GABRR1; full-length subunit in pRK5, HEK cells; homopentamer
As to the kind of experiment: whole-cell patch clamp, HEK cells. Type of experiment: cell-based.

The test system of the next experiment is T9, ρ1-260-γ2S.
T9 construct: gene GABRR1; single-chain fusion: human rho1 ECD to residue 260, mouse gamma2S TMD; homopentamer in HEK cells
Nature of the experiment: whole-cell patch clamp, HEK cells. Type of experiment: cell-based, Homo sapiens; Mus musculus. The following applies: co-applied with GABA EC80 (200 μM).

Experiment [7] addresses T10, ρ1 (Homo sapiens, UniProt P24046).
T10 construct: gene GABRR1; full-length subunit in pRK5, HEK cells; homopentamer
As to the kind of experiment: whole-cell patch clamp, HEK cells. The conditions noted are these: read-out: PS IC50. Type of experiment: cell-based. An excerpt: whole-cell patch clamp, HEK cells on ρ1

The target of a further experiment is T11, α2β2γ2L (Mus musculus, UniProt P22723+P26048+P63137).
T11 construct: gene Gabra2; full-length subunits in pRK5, co-expressed in HEK cells; heteropentamer; with Gamma-aminobutyric acid receptor subunit gamma-2
As to the kind of experiment: whole-cell patch clamp, HEK cells. The format is cell-based. The following applies: read-out: PS IC50. The text has this: whole-cell patch clamp, HEK cells on α2β2γ2L

For the next experiment, the target named is T12, α5β2γ2L (Mus musculus, UniProt P22723+P63137+Q8BHJ7).
T12 construct: gene Gabra5; full-length subunits in pRK5, co-expressed in HEK cells; heteropentamer; with Gamma-aminobutyric acid receptor subunit gamma-2
Nature of the experiment: whole-cell patch clamp, HEK cells. The following applies: read-out: PS IC50. The format is cell-based. An excerpt:
whole-cell patch clamp, HEK cells on α5β2γ2L

For a further experiment, the target named is T13, α1β3γ2L (Mus musculus, UniProt P22723+P62812+P63080).
T13 construct: gene Gabra1; full-length subunits in pRK5, co-expressed in HEK cells; heteropentamer; with Gamma-aminobutyric acid receptor subunit gamma-2
As to the kind of experiment: whole-cell patch clamp, HEK cells. Type of experiment: cell-based. The conditions noted are these: read-out: PS IC50. The text has this:
whole-cell patch clamp, HEK cells on α1β3γ2L

The next experiment has as its system T14, ρ1-260-α1.
T14 construct: gene GABRR1; single-chain fusion: human rho1 ECD to residue 260 (start of M1), mouse alpha1 TMD with linkers; homopentamer in HEK cells
As to the kind of experiment: whole-cell patch clamp, HEK cells. Type of experiment: cell-based, Homo sapiens; Mus musculus. The following applies: steady-state current, co-applied with GABA EC80 (30 μM), pH 7.4, room temperature.

In experiment [8] the target is T4, α3β2γ2L. Nature of the experiment: whole-cell patch clamp, HEK cells, Hill fit. Type of experiment: cell-based. An excerpt: whole-cell patch clamp, HEK cells, Hill fit on α3β2γ2L
Experiment [9] concerns the target T5, α6β2δ. As to the kind of experiment: whole-cell patch clamp, HEK cells, Hill fit. The format is cell-based. An excerpt:
whole-cell patch clamp, HEK cells, Hill fit on α6β2δ

T4 sequence (P26049 29-492): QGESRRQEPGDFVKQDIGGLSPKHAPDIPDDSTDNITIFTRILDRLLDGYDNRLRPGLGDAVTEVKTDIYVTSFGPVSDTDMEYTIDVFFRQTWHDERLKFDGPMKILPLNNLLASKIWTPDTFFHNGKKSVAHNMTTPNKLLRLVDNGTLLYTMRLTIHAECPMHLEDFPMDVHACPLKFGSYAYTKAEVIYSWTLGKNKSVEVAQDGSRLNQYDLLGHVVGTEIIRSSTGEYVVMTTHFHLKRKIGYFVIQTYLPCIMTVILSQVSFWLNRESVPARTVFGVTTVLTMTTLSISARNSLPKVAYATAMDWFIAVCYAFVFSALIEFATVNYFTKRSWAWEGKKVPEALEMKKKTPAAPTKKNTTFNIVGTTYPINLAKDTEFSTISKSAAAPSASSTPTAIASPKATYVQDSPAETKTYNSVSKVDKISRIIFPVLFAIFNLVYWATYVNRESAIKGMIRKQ
T4 sequence (P63137 26-512): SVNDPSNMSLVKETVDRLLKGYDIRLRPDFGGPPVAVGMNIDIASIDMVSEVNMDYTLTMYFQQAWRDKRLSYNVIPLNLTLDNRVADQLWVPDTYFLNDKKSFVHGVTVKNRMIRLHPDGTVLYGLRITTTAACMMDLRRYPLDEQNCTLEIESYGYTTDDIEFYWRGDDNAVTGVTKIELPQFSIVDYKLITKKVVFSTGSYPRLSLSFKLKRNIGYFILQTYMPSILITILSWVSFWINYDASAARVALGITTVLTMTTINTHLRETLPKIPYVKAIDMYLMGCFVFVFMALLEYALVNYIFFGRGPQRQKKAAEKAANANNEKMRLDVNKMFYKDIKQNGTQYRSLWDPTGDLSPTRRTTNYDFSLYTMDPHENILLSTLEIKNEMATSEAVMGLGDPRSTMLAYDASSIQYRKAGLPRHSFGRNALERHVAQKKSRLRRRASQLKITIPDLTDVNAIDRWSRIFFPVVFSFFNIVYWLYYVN
T4 sequence (P22723 39-474): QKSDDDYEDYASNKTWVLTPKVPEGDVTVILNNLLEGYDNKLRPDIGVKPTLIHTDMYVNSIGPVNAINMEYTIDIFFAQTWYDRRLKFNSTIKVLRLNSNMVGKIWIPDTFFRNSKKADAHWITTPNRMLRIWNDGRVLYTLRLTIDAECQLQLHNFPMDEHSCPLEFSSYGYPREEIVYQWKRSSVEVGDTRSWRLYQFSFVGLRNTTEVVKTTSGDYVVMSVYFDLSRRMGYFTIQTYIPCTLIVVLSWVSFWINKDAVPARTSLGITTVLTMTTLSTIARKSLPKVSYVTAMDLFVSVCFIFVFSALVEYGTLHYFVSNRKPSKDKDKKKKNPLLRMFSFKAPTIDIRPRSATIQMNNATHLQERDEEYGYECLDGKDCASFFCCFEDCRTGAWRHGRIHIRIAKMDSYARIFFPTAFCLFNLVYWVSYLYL
T1 sequence (P62812 28-455): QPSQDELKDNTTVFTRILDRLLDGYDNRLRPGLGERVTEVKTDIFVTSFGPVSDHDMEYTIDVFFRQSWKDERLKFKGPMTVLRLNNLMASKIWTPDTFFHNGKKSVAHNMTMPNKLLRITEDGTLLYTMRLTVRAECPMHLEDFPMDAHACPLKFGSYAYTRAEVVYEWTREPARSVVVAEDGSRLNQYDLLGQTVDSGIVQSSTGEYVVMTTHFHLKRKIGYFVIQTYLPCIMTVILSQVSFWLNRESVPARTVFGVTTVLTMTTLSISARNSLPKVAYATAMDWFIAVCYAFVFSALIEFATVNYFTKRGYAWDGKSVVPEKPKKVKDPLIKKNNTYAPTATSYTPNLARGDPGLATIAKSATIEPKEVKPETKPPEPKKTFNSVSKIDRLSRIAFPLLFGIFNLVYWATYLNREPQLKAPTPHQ
T1 sequence (P63137 26-512): as the sequence (P63137 26-512) above
T1 sequence (P22723 39-474): as the sequence (P22723 39-474) above
T5 sequence (P16305 20-453): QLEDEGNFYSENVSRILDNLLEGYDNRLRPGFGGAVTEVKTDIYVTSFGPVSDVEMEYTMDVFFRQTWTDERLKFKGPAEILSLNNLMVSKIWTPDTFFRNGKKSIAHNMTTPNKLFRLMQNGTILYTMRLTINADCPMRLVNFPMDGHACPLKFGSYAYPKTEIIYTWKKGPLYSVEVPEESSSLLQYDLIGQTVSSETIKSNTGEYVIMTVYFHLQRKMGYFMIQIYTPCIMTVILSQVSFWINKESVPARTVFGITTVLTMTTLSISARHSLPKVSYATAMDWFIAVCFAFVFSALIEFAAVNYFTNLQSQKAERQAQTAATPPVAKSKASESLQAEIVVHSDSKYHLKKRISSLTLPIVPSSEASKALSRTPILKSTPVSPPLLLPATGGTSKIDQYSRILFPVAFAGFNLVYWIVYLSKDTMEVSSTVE
T5 sequence (P63137 26-512): as the sequence (P63137 26-512) above
T5 sequence (P22933 25-449): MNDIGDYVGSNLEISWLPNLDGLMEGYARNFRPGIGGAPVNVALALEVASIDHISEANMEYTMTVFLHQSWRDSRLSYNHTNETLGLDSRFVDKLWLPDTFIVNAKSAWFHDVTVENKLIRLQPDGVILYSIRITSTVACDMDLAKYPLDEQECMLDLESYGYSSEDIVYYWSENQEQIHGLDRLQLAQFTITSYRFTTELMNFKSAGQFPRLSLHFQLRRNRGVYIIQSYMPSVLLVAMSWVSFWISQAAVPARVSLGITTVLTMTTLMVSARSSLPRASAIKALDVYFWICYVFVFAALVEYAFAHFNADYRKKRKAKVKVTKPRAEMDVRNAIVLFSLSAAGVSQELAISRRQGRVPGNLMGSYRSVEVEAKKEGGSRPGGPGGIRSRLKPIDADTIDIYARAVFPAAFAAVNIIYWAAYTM
T11 sequence (P26048 29-451): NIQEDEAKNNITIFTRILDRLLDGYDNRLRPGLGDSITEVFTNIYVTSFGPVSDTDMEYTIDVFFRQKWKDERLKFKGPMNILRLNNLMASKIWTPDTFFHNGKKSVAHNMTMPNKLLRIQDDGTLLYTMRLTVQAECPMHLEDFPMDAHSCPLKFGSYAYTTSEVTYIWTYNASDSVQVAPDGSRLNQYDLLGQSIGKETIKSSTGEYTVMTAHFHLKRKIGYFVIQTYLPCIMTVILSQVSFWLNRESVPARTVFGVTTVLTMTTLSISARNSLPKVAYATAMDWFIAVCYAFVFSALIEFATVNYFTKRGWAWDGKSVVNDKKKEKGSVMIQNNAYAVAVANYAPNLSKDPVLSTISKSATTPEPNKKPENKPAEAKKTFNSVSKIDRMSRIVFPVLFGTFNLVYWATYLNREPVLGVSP
T11 sequence (P63137 26-512): as the sequence (P63137 26-512) above
T11 sequence (P22723 39-474): as the sequence (P22723 39-474) above
T8 sequence (P24046 22-479 P315V): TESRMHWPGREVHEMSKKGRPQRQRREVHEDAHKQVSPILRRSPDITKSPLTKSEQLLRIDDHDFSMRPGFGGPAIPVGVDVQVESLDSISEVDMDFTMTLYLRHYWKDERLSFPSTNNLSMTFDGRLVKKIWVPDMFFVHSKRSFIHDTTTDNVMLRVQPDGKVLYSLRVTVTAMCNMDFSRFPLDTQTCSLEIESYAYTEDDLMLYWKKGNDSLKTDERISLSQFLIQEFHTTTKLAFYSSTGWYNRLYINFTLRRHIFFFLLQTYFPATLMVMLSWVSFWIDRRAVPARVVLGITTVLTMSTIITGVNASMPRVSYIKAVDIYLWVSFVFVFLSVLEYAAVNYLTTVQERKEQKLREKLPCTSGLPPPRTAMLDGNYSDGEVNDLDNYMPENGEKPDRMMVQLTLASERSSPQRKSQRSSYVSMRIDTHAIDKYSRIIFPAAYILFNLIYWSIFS
T10 sequence (P24046 22-479): as the sequence (P24046 22-479 P315V) above, with V294P counted along it
T6 sequence (P63080 26-473): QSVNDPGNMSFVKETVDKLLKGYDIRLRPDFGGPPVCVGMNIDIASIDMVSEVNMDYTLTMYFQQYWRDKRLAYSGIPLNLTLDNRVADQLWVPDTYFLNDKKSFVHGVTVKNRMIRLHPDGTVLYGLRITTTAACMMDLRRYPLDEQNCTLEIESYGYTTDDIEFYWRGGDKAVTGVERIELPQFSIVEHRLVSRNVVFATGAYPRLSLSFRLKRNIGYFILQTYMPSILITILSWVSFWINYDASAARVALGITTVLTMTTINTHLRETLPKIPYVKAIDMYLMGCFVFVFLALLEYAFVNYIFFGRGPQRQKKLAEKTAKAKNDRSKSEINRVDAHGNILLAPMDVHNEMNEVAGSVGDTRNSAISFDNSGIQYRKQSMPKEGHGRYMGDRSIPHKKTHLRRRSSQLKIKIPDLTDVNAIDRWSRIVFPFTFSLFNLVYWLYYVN
T12 sequence (Q8BHJ7 26-463): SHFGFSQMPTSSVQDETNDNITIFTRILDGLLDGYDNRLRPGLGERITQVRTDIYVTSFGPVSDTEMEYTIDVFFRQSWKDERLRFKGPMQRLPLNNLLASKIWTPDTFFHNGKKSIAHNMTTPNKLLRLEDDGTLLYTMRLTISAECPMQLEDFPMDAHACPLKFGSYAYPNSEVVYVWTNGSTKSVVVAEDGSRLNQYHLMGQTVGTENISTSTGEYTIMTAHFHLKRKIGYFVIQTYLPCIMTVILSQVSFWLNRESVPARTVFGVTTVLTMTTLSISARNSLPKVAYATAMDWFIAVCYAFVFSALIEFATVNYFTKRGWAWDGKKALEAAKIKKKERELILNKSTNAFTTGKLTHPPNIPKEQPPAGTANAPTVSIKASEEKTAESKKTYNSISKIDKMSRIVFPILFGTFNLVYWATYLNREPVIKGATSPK
T12 sequence (P63137 26-512): as the sequence (P63137 26-512) above
T12 sequence (P22723 39-474): as the sequence (P22723 39-474) above
T7 sequence (P62812 28-455 V283S): as the sequence (P62812 28-455) above, with V256S counted along it
T7 sequence (P63137 26-512): as the sequence (P63137 26-512) above
T7 sequence (P22723 39-474): as the sequence (P22723 39-474) above

With picrotoxinin, the “% of control peak current at 10 μM PTX” value at α1β2γ2L [1] was 37.3 ± 8.1%.
As for `CC(=O)[C@H]1CC[C@H]2[C@@H]3CC=C4C[C@@H](OS(=O)(=O)O)CC[C@]4(C)[C@H]3CC[C@]12C` [pregnenolone sulphate], the IC50 at α1β2 stood at 1300 ± 70 nM; on α1β2γ2L [2] it was 400 ± 50 nM; at α4β2δ, 1300 ± 100 nM; at α3β2γ2L [3], 600 ± 50 nM; at α6β2δ [4] it was 1300 ± 100 nM; on α1β2γ2L [5], 35500 ± 8200 nM. The IC50 was 6000 ± 600 nM against ρ1 [6]; above 300000 nM on ρ1 [7]; 400 ± 50 nM at α2β2γ2L; 700 ± 100 nM on α5β2γ2L; 1000 ± 80 nM on α1β3γ2L; 7900 ± 1700 nM with ρ1-260-α1. The “whole-cell patch clamp, HEK cells” value at β3 homomer was “neurosteroid caused a concentration-dependent block of the PB-induced peak current”. In the experiment with ρ1-260-γ2S, the “% of control peak current at 100 μM PS” value was determined as 39.2 ± 5.1%.
On to `NCCCC(=O)O` [GABA], for which the concentration giving a half-maximal response (EC50) at α3β2γ2L [8] stood at 64600 ± 14300 nM; at α6β2δ [9] it was 200 ± 20 nM.
